Experimental data published in US20230203094A1, “Composition Comprising Thermosensitive Gel and Oligopeptide, and Use Thereof” (International Frontier Technology Laboratory, Inc., priority 2019, published 2023).

Tested on: human keratinocyte cell (KAC Co., Ltd.: KER110)
Assay: Cell proliferation test (Cell Counting Kit-8) in TGP culturing substrate
Type: cell-based
Conditions: 7 days culture, control = 100%, p < 0.01 (Dunnett)
Protocol: human keratinocyte cell (KAC Co., Ltd.: KER110)
the composition of the present disclosure comprising the polymer compound (TGP in Preparation Example 1) and oligopeptide of the present disclosure.
Frozen human keratinocyte cells (KAC Co., Ltd.: KER110) were dissolved in warm water at 37° C., suspended in EpiLife Medium (Thermo Fisher Scientific, Inc.: MEPI500CA) to which Human Keratinocyte Growth Supplement (HKGS) (Thermo Fisher Scientific, Inc.: S0015) was added, seeded in a 25 cm^2 flask, and cultured at 37° C. in an atmosphere containing 5% CO2.
The cultured cells were washed with DPBS (Thermo Fisher Scientific, Inc.: 14190144), and a trypsin solution (Thermo Fisher Scientific, Inc.: 12604013) was added to the cultured cells to recover cells and was centrifuged at 1,000 rpm for three minutes. After the centrifugation, supernatant was removed. A cell suspension obtained by adding a culture solution to a cell sediment was seeded in a 25 cm^2 flask and subcultured at 37° C. in an atmosphere containing 5% CO2.
The tripeptide in Preparation Example 3 was dissolved in a culture medium to prepare six samples having concentrations of 1 µM, 3 µM, 10 µM, 30 µM, 100 µM, and 1000 µM. A control includes only a culture medium.
The polymer compound (TGP in Preparation Example 1) of the present disclosure is added into a 48-well plate and freeze-dried. 120 µL of the six samples of the above concentrations and the control culture medium were added to the respective wells, and each mixture was dissolved with cooling at 4° C. overnight.
30 µL of a cell suspension recovered through the same procedure as the subculture operation was seeded in the polymer compound of the present disclosure in the 48-well plate and gelled at 37° C. for 30 minutes in an atmosphere containing 5% CO2. Then, 300 µL of the six samples of the above concentrations and control culture medium were layered and cultured at 37° C. in an atmosphere containing 5% CO2.
After culturing for 7 days, 250 µL of culture supernatant was removed, 60 µL of Cell Counting Kit-8 (Doujin Kagaku Co., Ltd.) was added and the mixture was reacted overnight at 37° C. in an atmosphere containing 5% CO2. 80 µL of the supernatant of an obtained reaction product was dispensed into a 96-well plate. This supernatant was measured with a microplate reader at a measurement wavelength of 450 nm to evaluate cell proliferation.
The cell proliferation rates of 1 µM, 3 µM, 10 µM, 30 µM, 100 µM, and 1000 µM samples were compared with that of a control, and the results are shown in Table 1 below.

With `CC[C@H](C)[C@H](NC(=O)[C@@H]1CCCN1)C(=O)NCC(=O)O` (racemic) [Preparation Example 3, prolyl-isoleucyl-glycine] the “Cell Proliferation Rates” value (1 µM tripeptide in TGP substrate) was 114%, the “Cell Proliferation Rates” value (3 µM tripeptide in TGP substrate) was 116% and the “Cell Proliferation Rates” value (10 µM tripeptide in TGP substrate) was 118%. For the same compound, the “Cell Proliferation Rates” value (30 µM tripeptide in TGP substrate) was 126%, the “Cell Proliferation Rates” value (100 µM tripeptide in TGP substrate) was 126% and the “Cell Proliferation Rates” value (1000 µM tripeptide in TGP substrate) was 128%.
